“Also recorded” adds a separate entry of the source.
System: liver enzymes AST and ALT, hepatocellular vacuolar degeneration, plasma lipids
Test: Assessment of hepatic function and plasma lipids
Assay type: in vivo, B6C3F1 mice
Method: Assessment of Hepatic Function: Hepatocellular vacuolar degeneration and enzymatic activity of circulating aspartate aminotransferase (AST) and alanine aminotransferase (ALT) were determined by the Diagnostic Laboratory of the Arizona Health Sciences Center. Total cholesterol and triglycerides were quantified using Sigma reagents 401-25P and 344-20 respectively. HDL was measured by precipitating apoB-containing lipoproteins (Boehringer Mannheim reagent 543004) and assaying cholesterol in the supernatant fraction using the Sigma 401-25P reagent.

C1CC2OC2CC1C1CO1 (stereo not shown) [VCD, 4-vinylcyclohexene diepoxide]
Circulating alanine aminotransferase (ALT) (160 mg/kg 15 d, d1-d46): not different from controls; also recorded: within the normal range
Circulating aspartate aminotransferase (AST) (160 mg/kg 15 d, d1-d46): not different from controls; also recorded: within the normal range
Total plasma cholesterol, HDL and triglycerides (d10, d15 and d37): within the normal range
Occurrence of hepatocellular vacuolar degeneration (naive, vehicle-treated control or VCD-treated mice, any time): no difference

From patent US7638678B2, “Animal model for perimenopause and menopause and methods of inducing ovarian failure” (The Arizona Board of Regents, priority 2002, dated 2009)
